Experiments:
MMP-2 (gelatinase A) = target: T1, MMP-2 (gelatinase A) (Homo sapiens, UniProt P08253); assay: MMP-2 (gelatinase A) inhibitory activity, FITC-labeled type IV collagen degradation; format: biochemical; conditions: 50% inhibition of collagen type IV degradation; activated pro MMP-2 from transfected COS-1 cells; 42° C., 4 h
T1 construct: made in house; host or cells: COS-1 cells transfected with human pro-MMP-2 cDNA (secreted into culture medium)
T1 sequence (P08253 110-660): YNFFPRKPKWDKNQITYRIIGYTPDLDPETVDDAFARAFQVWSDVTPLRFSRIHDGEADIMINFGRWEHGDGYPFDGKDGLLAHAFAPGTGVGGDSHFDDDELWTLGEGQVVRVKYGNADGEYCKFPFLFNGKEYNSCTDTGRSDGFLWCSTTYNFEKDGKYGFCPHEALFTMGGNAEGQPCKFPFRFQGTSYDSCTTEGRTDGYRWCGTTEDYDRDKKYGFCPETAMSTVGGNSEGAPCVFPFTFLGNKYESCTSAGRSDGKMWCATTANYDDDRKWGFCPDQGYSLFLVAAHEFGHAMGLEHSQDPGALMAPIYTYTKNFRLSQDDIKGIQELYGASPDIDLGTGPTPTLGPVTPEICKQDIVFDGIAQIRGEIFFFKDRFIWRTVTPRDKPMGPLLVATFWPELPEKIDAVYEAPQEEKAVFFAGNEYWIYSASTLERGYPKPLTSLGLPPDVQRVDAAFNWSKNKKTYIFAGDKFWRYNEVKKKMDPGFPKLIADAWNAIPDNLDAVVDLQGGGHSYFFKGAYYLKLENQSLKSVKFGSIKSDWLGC
Method: (§1) Experiment 2: MMP-2 (gelatinase A) and MMP-9 (gelatinase B) inhibitory activities.
(§2) Pro MMP-2 was obtained from culture medium separated from human pro-MMP-2 cDNA tranfected COS-1 cells. It was activated by 1 mM (p-aminophenyl)mercury acetic acid, and MMP-9, derived human fibrosarcome,was purchased from Yagai Co. Ltd. Inhibition of both enzyme activities were estimated by enzyme assay using type IV collagenase activity assay kit (Yagai Co. Ltd., Biswaz, C. et al., J. Cell.Biochem., 28, 39 (1984)). MMP-2 or MMP-9 (0.01 U/ml), test compound (several concentrations), and FITC-labeled type IV collagen (derived bovine placenta, 25 μg) were incubated in 100 μl of 0.05M Tris - HCl buffer (pH 7.5) containing 200 mM NaCl and 5 mM CaCl2 at 42° C. for 4 h. Inhibitory activity of compound was evaluated by same as that of MMP-1 assay. Unchanged type IV collagen was precipitated by centrifugation, and the degradation percent of substrate was calculated by comparison with a fluorescence intensity of heat denatured substrate as 100%. Inhibition of enzyme activity was expressed as an IC50 value which was the concentration of test compound necessary to produce 50% inhibition of collagen type IV degradation by enzyme.

MMP-9 (gelatinase B) = target: T2, MMP-9 (gelatinase B) (Homo sapiens, UniProt P14780); assay: MMP-9 (gelatinase B) inhibitory activity, FITC-labeled type IV collagen degradation; format: biochemical; conditions: 50% inhibition of collagen type IV degradation; MMP-9 derived from human fibrosarcoma; 42° C., 4 h
T2 construct: purchased Yagai Co. Ltd; host or cells: human fibrosarcoma
T2 sequence (P14780 94-707): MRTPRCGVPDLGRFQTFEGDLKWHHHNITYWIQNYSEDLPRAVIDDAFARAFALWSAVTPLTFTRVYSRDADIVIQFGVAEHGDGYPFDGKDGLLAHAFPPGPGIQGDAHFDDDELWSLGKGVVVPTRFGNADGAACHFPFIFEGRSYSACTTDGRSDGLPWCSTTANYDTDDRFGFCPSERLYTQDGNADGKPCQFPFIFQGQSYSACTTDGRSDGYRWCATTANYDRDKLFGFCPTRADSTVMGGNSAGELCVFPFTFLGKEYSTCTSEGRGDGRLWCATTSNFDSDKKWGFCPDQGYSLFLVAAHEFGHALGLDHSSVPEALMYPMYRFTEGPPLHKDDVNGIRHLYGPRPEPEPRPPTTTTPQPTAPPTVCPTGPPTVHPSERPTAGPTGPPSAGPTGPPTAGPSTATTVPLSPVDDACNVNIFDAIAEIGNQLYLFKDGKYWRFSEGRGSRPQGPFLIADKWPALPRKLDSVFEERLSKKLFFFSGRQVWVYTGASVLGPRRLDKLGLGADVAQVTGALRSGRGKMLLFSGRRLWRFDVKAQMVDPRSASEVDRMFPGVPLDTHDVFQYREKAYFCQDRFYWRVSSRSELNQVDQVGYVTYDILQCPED
Method: as §1, §2

Compound | IC50 (MMP-2 (gelatinase A)) | IC50 (MMP-9 (gelatinase B))
CNC(=O)[C@@H]1Cc2ccccc2CN1C(=O)[C@H](CCCOc1ccc(OC)cc1)CC(=O)O [Compound 27, N-[(2R)-2-(1'-Carboxymethyl)-5-[(4-methoxyphenyl)oxy]pentanoyl]-L-tetrahydroisoquinoline N-Methylamide] | > 10000 nM | 1500 nM
CNC(=O)[C@H](Cc1ccccc1)NC(=O)[C@H](CCCCOc1ccc(OC)cc1)CC(=O)O [Compound 14] | 160 nM | 120 nM
CNC(=O)[C@H](Cc1ccc(OC)cc1)NC(=O)[C@H](CCc1ccc2cccccc1-2)CC(=O)O [Compound 3, (2S)-2-[(2R)-2-(1'-Carboxymethyl)-4-(azulene-1-yl)butyroyl)amino-3-(4-methoxy)phenylpropanoylmethylamide] | 240 nM | 280 nM
CCOc1ccc(OCC[C@H](CC(=O)O)C(=O)N[C@@H](Cc2ccccc2)C(=O)NC)cc1 [Compound 9, N-[(2R)-2-(1'-Carboxymethyl)-4-[(4-ethoxyphenyl)oxy]butyroyl]-L-phenylalanine N-Methylamide] | 49 nM | 39 nM
CCOc1ccc(C[C@H](NC(=O)[C@H](CCc2ccc3cccccc2-3)CC(=O)O)C(=O)NC)cc1 [Compound 6, (2S)-2-[(2R)-2-(1'-Carboxymethyl)-4-(azulene-1-yl)butyroyl]amino-3-(4-ethoxy)phenylpropanoyl methylamide] | 1000 nM | 360 nM
COc1ccc(OCCC[C@H](CC(=O)O)C(=O)N[C@H](C(=O)NCCS(N)(=O)=O)C(C)(C)C)cc1 [Compound 26] | 48 nM | 6.5 nM
COc1ccc(OCCC[C@H](CC(=O)O)C(=O)N[C@H](C(=O)NC(C)(C)C)C(C)(C)C)cc1 [Compound 25, N-[(2R)-2-(1'-Carboxymethyl)-5-[(4-methoxyphenyl)oxy]pentanoyl]-L-tert-leucine N-tert-Butylamide] | 200 nM | 28 nM
CNC(=O)[C@H](Cc1ccccc1)NC(=O)[C@H](CCOc1ccc(OC)cc1)CC(=O)O [Compound 8, N-[(2R)-2-(1'-Carboxymethyl)-4-[(4-methoxyphenyl)oxy]butyroyl]-L-phenylalanine N-Methylamide] | 160 nM | 35 nM
COc1ccc(OCCC[C@H](CC(=O)O)C(=O)N[C@@H](Cc2ccccc2)C(=O)NCCS(N)(=O)=O)cc1 [Compound 12, 2-[[N-(2R)-2-(1'-Carboxymethyl)-5-[(4-methoxyphenyl)oxy]pentanoyl]-L-phenylalanyl]amino-ethanesulfonamid] | 21 nM | 3 nM
CNC(=O)[C@H](Cc1ccccc1)NC(=O)[C@H](CCc1ccc2cccccc1-2)CC(=O)O [Compound 2, N-[(2R)-2-(1'-Carboxymethyl)-4-(azulene-1-yl)butyroyl]-L-phenylalanine N-Methylamide] | 390 nM | 1300 nM
CNC(=O)[C@H](Cc1ccc(OC)cc1)NC(=O)[C@H](CCc1ccc2cccccc1-2)CC(=O)NO [Compound 33, (2S)-2-[(2R)-2-(2'-Hydroxyamino-2'-oxo-ethyl)-4-(azulene-1-yl)butyloyl]amino-3-(4-methoxy)phenylpropanoylmethylamide] | 160 nM | 18 nM
CNC(=O)[C@H](Cc1ccccc1)NC(=O)[C@H](CCCOc1ccc(OC)cc1)CC(=O)O [Compound 10, N-[(2R)-2-(1'-Carboxymethyl)-5-[(4-methoxyphenyl)oxy]pentanoyl]-L-phenylanine N-Methylamide] | 50 nM | 5.1 nM
COc1ccc(C[C@H](NC(=O)[C@H](CCCOc2ccc(OC)cc2)CC(=O)O)C(=O)NCCS(N)(=O)=O)cc1 [Compound 20] | 16 nM | 2.9 nM
CNC(=O)[C@@H](NC(=O)[C@H](CCc1ccc2cccccc1-2)CC(=O)NO)C(C)(C)C [Compound 34, N-[(2R)-2-(2'-Hydroxyamino-2'-oxo-ethyl)-4-(azulene-1-yl)-butyloyl]-L-tert-leucine N-Methylamide] | 760 nM | 52 nM
CNC(=O)[C@H](Cc1ccccc1)NC(=O)[C@H](CCCc1ccc2cccccc1-2)CC(=O)NO [Compound 35, N-[(2R)-2-(2'-Hydroxyamino-2'-oxo-ethyl)-5-(azulene-1-yl)-pentanoyl]-L-phenylalanine N-Methylamide] | 1300 nM | 2500 nM
CNC(=O)[C@H](Cc1ccccc1)NC(=O)[C@H](CCCCc1ccc2cccccc1-2)CC(=O)NO [Compound 37, N-[(2R)-2-(2'-Hydroxyamino-2'-oxo-ethyl)-6-(azulene-1-yl)-hexanoyl]-L-phenylalanine N-Methylamide] | 2700 nM | 2900 nM
CNC(=O)[C@H](Cc1ccccc1)NC(=O)[C@H](CCCCc1ccc2cccccc1-2)CC(=O)O [Compound 7, N-[(2R)-2-(1'-Carboxymethyl)-6-(azulene-1-yl)hexanoyl]-L-phenylalanine N-Methylamide] | > 10000 nM | 3000 nM

The next lines start with the values.

IC50 (MMP-2 (gelatinase A)) | IC50 (MMP-9 (gelatinase B)) | Compound
6800 nM | 1500 nM | CNC(=O)[C@H](Cc1ccc(OC)cc1)NC(=O)[C@@H](CC(=O)NO)CC(C)(C)COC [Compound 59, (2S)-2-[(2R)-2-(2'-Hydroxyamino-2'-oxo-ethyl)-4,4-dimethyl-5-methoxy-pentanoyl]amino-3-(4-methoxy)phenylpropanoyl-methylamide]
2300 nM | 980 nM | CNC(=O)[C@H](Cc1ccc(OC)cc1)NC(=O)[C@H](CCCCOc1ccc(OC)cc1)CC(=O)OCc1oc(=O)oc1C [Compound 64, (2S)-2-[(2R)-2-(2'-(5-Methyl-2-oxo-1,3-dioxolen-4-yl)-methylene-oxy-2'-oxo-ethyl]-6-[(4-methoxyphenyl)oxy]-hexanoyl]amino-3-(4-methoxy)phenylpropanoylmethylamide]
37 nM | 23 nM | CNC(=O)[C@@H]1Cc2ccccc2CN1C(=O)[C@H](CCCOc1ccc(OC)cc1)CC(=O)NO [Compound 57, N-[(2R)-2-(2'-Hydroxyamino-2'-oxo-ethyl)-5-[(4-methoxyphenyl)oxy]pentanoyl]-L-tetrahydroisoquinoline N-Methylamide]
250 nM | 160 nM | C=CCOc1ccc(OCCCC[C@H](CC(=O)NO)C(=O)N[C@@H](Cc2ccccc2)C(=O)NC)cc1 [Compound 46, N-[(2R)-2-(2'-Hydroxyamino-2'-oxo-ethyl)-6-[(4-allyloxy-phenyl)oxy]hexanoyl]-L-phenylalanine N-Methylamide]
5.6 nM | 0.11 nM | CNC(=O)[C@@H](NC(=O)[C@H](CCCOc1ccc(OC)cc1)CC(=O)NO)C(C)(C)C [Compound 54, N-[(2R)-2-(2'-Hydroxyamino-2'-oxo-ethyl)-5-[(4-methoxyphenyl)oxy]-pentanoyl]-L-tert-leucine N-Methylamide]
1 nM | 0.18 nM | CNC(=O)[C@H](Cc1ccccc1)NC(=O)[C@H](CCCOc1ccc(OC)cc1)CC(=O)NO [Compound 40, N-[(2R)-2-(2'-Hydroxyamino-2'-oxo-ethyl)-5-[(4-methoxyphenyl)oxy]pentanoyl]-L-phenylalanine N-Methylamide]
3.1 nM | 0.13 nM | COc1ccc(OCCC[C@H](CC(=O)NO)C(=O)N[C@@H](Cc2ccccc2)C(=O)NC(C)(C)C)cc1 [Compound 41, N-[(2R)-2-(2'-Hydroxyamino-2'-oxo-ethyl)-5-[(4-methoxyphenyl)oxy]pentanoyl]-L-phenylalanine N-tert-Butylamide]
4 nM | 0.72 nM | CCOc1ccc(OCCCC[C@H](CC(=O)NO)C(=O)N[C@@H](Cc2ccccc2)C(=O)NC)cc1 [Compound 45, N-[(2R)-2-(2'-Hydroxyamino-2'-oxo-ethyl)-6-[(4-ethoxy-phenyl)oxy]hexanoyl]-L-phenylalanine N-Methylamide]
9 nM | 0.15 nM | CNC(=O)[C@H](Cc1ccc(OC)cc1)NC(=O)[C@H](CCCOc1ccc(OC)cc1)CC(=O)NO [Compound 48, (2S)-2-[(2R)-2-(2'-Hydroxyamino-2'-oxo-ethyl)-5-[(4-methoxyphenyl)oxy]-pentanoyl]amino-3-(4-methoxy)phenyl-propanoylmethylamide]
